The text below walks through data of ChEMBL document CHEMBL1201862, “PubChem BioAssay data set” (2004).

Each structure is given as a SMILES string.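 Five concentrations, 48 hours, 96-well plates. At the GI50, growth is halved.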 The source made the active and inactive calls. No stated cut-off is given here; in the data, active = GI50 up to about 1.1 µM and inactive = higher.

What all share (experiment): NCI anticancer screen, dose series, 48 h
The subject of test [1] is MDA-MB-435.
Test [2] concerns U-251.
In test [3] the test system is 786-0.
In test [4] the test system is OVCAR-8.
In test [5] the test system is SW-620.
Test [6] concerns HCC 2998.
The subject of test [7] is SK-MEL-28.
Test [8] deals with NCI-H23.
The subject of test [9] is HL-60.
For test [10], the system named is NCI-H226.
Test [11] concerns SF-268.
The test system of test [12] is SR.
Test [13] deals with OVCAR-5.
In test [14] the test system is SN12C.
Test [15] relates to CCRF-CEM.
Test [16] concerns COLO 205.
In test [17] the test system is SF-295.
Test [18] concerns CAKI-1.
The test system of test [19] is LOX IMVI.
Test [20] concerns TK-10.

As for `c1ccc(/C(=N/Nc2ccccn2)c2ncccn2)cc1`, the GI50 in test [1] is 2.77 µM (inactive); in [2], 2.07 µM (inactive); in [3], 0.8 µM (active); in test [4], 0.369 µM (active); in test [5], 0.0982 µM (active); in test [6] it was > 30 µM (inactive). The GI50 is 3.93 µM (inactive) in test [7]; 1.74 µM (inactive) in [8]; 0.0524 µM (active) in [9]; 0.201 µM (active) in test [10]; 0.855 µM (active) in test [11]; 0.929 µM (active) in test [12]. Moreover, the GI50 in test [13] was 2.77 µM (inactive); in [14], 0.488 µM (active); in test [15], < 0.0183 µM (active); in [16] it was < 0.0139 µM (active); in test [17], 3.6 µM (inactive); in test [18], 0.0528 µM (active).
Take `C[C@@H]1C[C@@H](O)[C@@]2(O)C13CC(=O)OC(C3)[C@@H](C)[C@@]2(C)CO` (some centres undefined): the GI50 in [1], in [2], in test [3], in test [4], in test [5] and in test [19] was > 100 µM (inactive) throughout. Besides, the GI50 in test [6], in [7], in test [8], in test [9], in test [10] and in test [11] was > 100 µM (inactive) throughout. In addition, the GI50 in [12], in test [13], in [14], in test [20], in test [16] and in test [17] was > 100 µM (inactive) throughout.
Take `S=C1SC(=N\c2ccccc2)/C(=N/c2ccccc2)N1c1ccc2ccccc2c1`: the GI50 in test [1], in [2], in [4], in test [6], in [7] and in test [8] was > 100 µM (inactive) each time. Besides, the GI50 in test [9], in [10], in [12], in test [13], in test [14] and in [15] was > 100 µM (inactive) throughout. The GI50 in test [16], in test [17] and in test [18] was > 100 µM (inactive) throughout.
In the case of `Cc1oc(N)c(S(=O)(=O)c2ccc(Cl)cc2)c1C`, the GI50 in test [1] was 55.3 µM (inactive); in test [2], > 100 µM (inactive); in test [3] it was 73.8 µM (inactive); in [4] it was 50.5 µM (inactive); in [5], > 100 µM (inactive); in test [6], 23.8 µM (inactive). Moreover, the GI50 was > 100 µM (inactive) in test [7]; 32.8 µM (inactive) in test [8]; 88.9 µM (inactive) in [9]; 53.1 µM (inactive) in test [10]; 43.1 µM (inactive) in [11]; 86.3 µM (inactive) in test [12]. Moreover, the GI50 in test [13] is > 100 µM (inactive); in test [20], 83.6 µM (inactive); in [15], 78.9 µM (inactive); in test [16], > 10 µM (inactive); in test [17], 39.5 µM (inactive).
As to `CCN(CC)CCN1C(=O)c2cccc3cc(N)cc(c23)C1=O`, the GI50 is 10.2 µM (inactive) in [1]; 9.48 µM (inactive) in test [2]; 5.32 µM (inactive) in test [3]; 6.68 µM (inactive) in test [4]; 4.91 µM (inactive) in test [5]; 8.61 µM (inactive) in [6]. In addition, the GI50 in [7] is 19.3 µM (inactive); in test [8] it was 7.23 µM (inactive); in test [9], 16.6 µM (inactive); in test [10], 16.6 µM (inactive); in test [11], 12.6 µM (inactive); in [12], 3.32 µM (inactive). Moreover, the GI50 in test [13] is 3.06 µM (inactive); in [14], 4.31 µM (inactive); in [20], 17.9 µM (inactive); in test [15], 6.28 µM (inactive); in test [16] it was 4.41 µM (inactive); in test [17], 9.12 µM (inactive). The GI50 in [18] was 7.28 µM (inactive).
As for `CN(C)C[C@H]1CC[C@@H](CN(C)C)C1=O`, the GI50 was 9.66 µM (inactive) in [1]; 28.7 µM (inactive) in test [2]; 5.68 µM (inactive) in test [3]; 9.08 µM (inactive) in [4]; 2.11 µM (inactive) in [5]; 7.14 µM (inactive) in test [19]. Also, the GI50 is > 29.6 µM (inactive) in test [6]; 5.15 µM (inactive) in [7]; 9.4 µM (inactive) in test [8]; 1.29 µM (inactive) in test [9]; 13.1 µM (inactive) in test [10]; 11.2 µM (inactive) in test [11]. For the same compound, the GI50 in [12] was 2.21 µM (inactive); in test [13], 8.79 µM (inactive); in test [14] it was 8.59 µM (inactive); in test [20], 8.11 µM (inactive); in test [16], 3.67 µM (inactive); in test [17], 48.9 µM (inactive). Besides, in [18], the GI50 is 8.79 µM (inactive).
As for `CO[C@]12CC(=O)C3(C(C[C@H]4CC5CC=C6C[C@@H](OC(C)=O)CC[C@]6(OC(C)=O)C5C[C@@]43C)C1)C1C[C@H]3[C@@H]4CC=C5C[C@@H](OC(C)=O)CC[C@]5(OC(C)=O)[C@H]4CC[C@]3(C)C12` (some centres undefined), the GI50 in test [1] is 18.8 µM (inactive); in test [2], 17.5 µM (inactive); in test [3], 19.8 µM (inactive); in test [4] it was 24.1 µM (inactive); in test [5] it was 41 µM (inactive); in test [19] it was 18.9 µM (inactive). Besides, the GI50 in [6] is 17.8 µM (inactive); in test [7], 30 µM (inactive); in test [8], 15.6 µM (inactive); in test [9], 14.9 µM (inactive); in test [11], 56.9 µM (inactive); in [12], 5.66 µM (inactive). Besides, the GI50 in test [13] was 21.7 µM (inactive); in test [14], 14.6 µM (inactive); in test [20] it was 43.2 µM (inactive); in [15], 74 µM (inactive); in [16], 3.1 µM (inactive); in [17], 13.9 µM (inactive). In [18], the GI50 is 19.2 µM (inactive).
Turning to `COC1=CC(=O)c2c(c(COP(=O)(N(C)CCBr)N(C)CCBr)cn2C)C1=O`, the GI50 in [1] was 0.0588 µM (active); in test [2] it was < 0.0225 µM (active); in [3], < 0.0103 µM (active); in test [4] it was < 0.0264 µM (active); in test [5], < 0.0109 µM (active); in [19] it was 0.194 µM (active). In addition, the GI50 in test [6] was 0.0373 µM (active); in test [7], 0.141 µM (active); in [8], < 0.0326 µM (active); in test [9] it was < 0.01 µM (active); in test [11] it was 0.0431 µM (active); in [12], < 0.01 µM (active). In addition, the GI50 is 0.148 µM (active) in [13]; < 0.01 µM (active) in [14]; 0.17 µM (active) in [20]; < 0.0158 µM (active) in test [15]; 0.0521 µM (active) in test [16]; < 0.01 µM (active) in test [17]. In addition, the GI50 in test [18] was < 0.01 µM (active).
